Data taken from patent US8772304B2, “Benzimidazole inhibitors of leukotriene production” (Boehringer Ingelheim International GmbH, priority 2010, dated 2014).

Tests used:
proteinuria = conditions: clinical trial, human glomerulonephritis; cited from earlier work
[1] = tested on: biomarkers for myocardial infarction risk; conditions: clinical trial; cited from earlier work
atherosclerotic plaque [2] = conditions: oral dosing, apoE/LDL-R double knockout mice, high-fat diet from 2 to 6 months of age; cited from earlier work
atherosclerotic plaque [3] = conditions: infusion, ApoE−/−xCD4dnTβRII mice, treated for four weeks; cited from earlier work
[4] = target: recombinant human FLAP protein (Homo sapiens (Human), UniProt P20292); assay: FLAP binding assay (Scintillation Proximity Assay, displacement of iodinated FLAP inhibitor); conditions: displacement of [125I]L-691,831; membranes of sf9 cells expressing recombinant human FLAP; read-out: hFLAP binding IC50
Sequence of recombinant human FLAP protein (P20292 whole entry): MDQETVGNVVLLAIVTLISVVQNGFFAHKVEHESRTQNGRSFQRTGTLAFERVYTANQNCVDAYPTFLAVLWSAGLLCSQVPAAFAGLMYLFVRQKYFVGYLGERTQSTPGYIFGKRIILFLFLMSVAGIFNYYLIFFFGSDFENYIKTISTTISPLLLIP
Protocol: Compounds are assessed for the ability to bind to FLAP in a binding assay that measures compound-specific displacement of an iodinated (^125I) FLAP inhibitor via a Scintillation Proximity Assay format (adapted from S. Charleson et al., Mol. Pharmacol., 1992, 41, 873-879).
Cell pellets produced from sf9 insect cells expressing recombinant human FLAP protein are resuspended in buffer A [15 mM Tris-HCl (pH 7.5), 2 mM MgCl2, 0.3 mM EDTA, 1 mM PMSF]. The cells are lysed with a Dounce homogenizer and the material is centrifuged at 10,000×g for 10 minutes. The supernatant is then collected and centrifuged at 100,000×g for 60 minutes. To prepare membrane protein for an assay, an aliquot of the 100,000×g pellet is resuspended in 1 ml of buffer A, Dounce homogenized, and finally subjected to polytron mixing (30 seconds). Membrane protein (25 μl, 5 μg) is mixed with WGA SPA beads (Amersham) and stirred for 1 h. […] (final concentrations: beads, 200 μg/well; protein, 5 μg/well; [^125I] probe, 0 08 nM/well (17 nCi/well). The plates are shaken for 2 h before reading on a Microbeta plate reader. Non-specific binding is determined by the addition of 10 μM cold L-691,831 compound.

[5] = tested on: synthesis of LTB4 in human whole blood; assay: human whole blood LTB4 production inhibition assay; assay type: cell-based; conditions: heparinized human whole blood, calcimycin 20 μM stimulation, plasma LTB4; read-out: hWB IC50
Protocol: Compounds are additionally tested in a human whole blood assay to determine their ability to inhibit the synthesis of LTB4 in a cellular system. Compounds are combined with heparinized human whole blood and incubated for 15 minutes at 37° C. Calcimycin (20 μM final, prepared in phosphate-buffered saline, pH 7.4) is then added and the mixture is incubated for another 30 minutes at 37° C. The samples are centrifuged for 5 min at low speed (1500×g) and the plasma layer is removed. Plasma LTB4 concentrations are then measured using an antibody-based homogenous time-resolved fluorescence method (CisBio, Bedford, Mass.).

SMILES | IC50 [4] | IC50 [5] | also measured
CC(C)(C)Sc1c(CC(C)(C)C(=O)O)n(Cc2ccc(Cl)cc2)c2ccc(OCc3ccc4ccccc4n3)cc12 [MK-591] | – | – | effect on proteinuria (proteinuria): reduce proteinuria
O=C(O)[C@@H](c1ccc(OCc2ccc3ccccc3n2)cc1)C1CCCC1 [DG-031] | – | – | effect on biomarkers for myocardial infarction risk [1]: dose-dependent suppression of several biomarkers
CC(C)c1ccc2c(c1)c(SC(C)(C)C)c(CC(C)(C)C(=O)O)n2Cc1ccc(Cl)cc1 [MK-886] | – | – | decrease in plaque coverage in the aorta (atherosclerotic plaque [2]): 56%; decrease in plaque coverage in the aortic root (atherosclerotic plaque [2]): 43%; decrease in plaque area in the aortic root (atherosclerotic plaque [3]): ~40%
CC(C)(C)n1c(-c2cc(Br)cnc2-n2cncn2)nc2cc(-c3cnc(N)nc3)ccc21 [Example 23, 5-[2-(5-Bromo-2-1,2,4-triazol-1-yl-pyridin-3-yl)-1-tert-butyl-1H-benzimidazol-5-yl]-pyrimidin-2-ylamine] | 4 nM | 81 nM | –
Cc1ncn(-c2ncccc2-c2nc3cc(-c4cnc(N)nc4)ccc3n2C(C)(C)C)n1 [Example 25, 5-{1-tert-Butyl-2-[2-(3-methyl-1,2,4-triazol-1-yl)-pyridin-3-yl]-1H-benzimidazol-5-yl}-pyrimidin-2-ylamine] | 12 nM | 278 nM | –
CC(C)(C)n1c(-c2cc(C#N)cnc2-n2cncn2)nc2cc(-c3cnc(N)nc3)ccc21 [Example 26, 5-[5-(2-Amino-pyrimidin-5-yl)-1-tert-butyl-1H-benzimidazol-2-yl]-6-1,2,4-triazol-1-yl-nicotinonitrile] | 10 nM | 75 nM | –
Cc1ncnn1-c1ccc(C#N)nc1-c1nc2cc(-c3cnc(N)nc3)ccc2n1C1(C)CCC1 [Example 6, 6-[5-(2-Amino-pyrimidin-5-yl)-1-(1-methyl-cyclobutyl)-1H-benzimidazol-2-yl]-5-(5-methyl-1,2,4-triazol-1-yl)-pyridine-2-carbonitrile] | 86 nM | 894 nM | –
COC(=O)c1cccnc1-c1nc2cc(-c3cnc(N)nc3)ccc2n1C(C)(C)C [Example 7, 2-[5-(2-Amino-pyrimidin-5-yl)-1-tert-butyl-1H-benzimidazol-2-yl]-nicotinic acid methyl esler] | 540 nM | 3100 nM | –
CC(C)(C)n1c(-c2cc(F)cnc2-n2cncn2)nc2cc(-c3cnc(N)nc3)ccc21 [Example 21, 5-[1-tert-Butyl-2-(5-fluoro-2-1,2,4-triazol-1-yl-pyridin-3-yl)-1H-benzimidazol-5-yl]-pyrimidin-2-ylamine] | 20 nM | 253 nM | –
